The term IC50 denotes the concentration that inhibits the measured activity by half. Low values mean inhibition by little substance, high ones a need for much substance.

Data on nine compounds can be found in US20240124460A1, “METHODS AND COMPOSITIONS FOR TARGETED PROTEIN DEGRADATION” (Ranok Therapeutics (Hangzhou) Co. Ltd., priority 2020, published 2024).

In one assay the target is T1, HSP90α protein (Homo sapiens, UniProt P07900).
T1 construct: purchased BPS Bioscience #50298
As to the kind of experiment: HSP90α-binding FP (BODIPY) assay. The conditions noted are these: FP competition with BODIPY-labeled RNK04010. The gist of the method:
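Fluorescence polarization measured competition with N-terminal human HSP90α, using either FITC-geldanamycin or BODIPY-labelled triazolone RNK04010 as tracer (5 nM final each). Compounds were tested in 2.5-fold dilutions from 20 μM to 5.2 nM, with incubation at 25 °C for 120 min (FITC) or 300 min (BODIPY).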

For the next assay, the system named is ERBB2. Nature of the assay: ERBB2 (HER2) flow cytometry protein degradation assay in BT-474 cells. The assay is classed as cell-based, human. The conditions noted are these: DC50, BT-474 cells, 24 hr. The protocol:
To analyze total ERBB2 expression by flow cytometry, cells were detached with trypsin, washed, counted and treated with 10 μl/10^6 cells PE-conjugated, anti-ERBB2 monoclonal antibody (R&D Systems, #FAB1129P) for 30 min at 25° C. in dark. Cells were then washed, resuspended in 200 μl 1% paraformaldehyde and analyzed by flow cytometry.
% Inhibition=100−(D−B)/(S−B)*100%. • S: Fluorescence intensity of cells with antibody • D: Fluorescence intensity of compound-treated cells with antibody • B: Fluorescence intensity of cells without antibody
On the technique in general: In flow cytometry, cells or beads pass a laser one at a time.

For assay [1], the system named is MV-4-11 human acute myeloid leukemia. As to the kind of experiment: MV-4-11 CCK-8 proliferation assay. The conditions noted are these: Homo sapiens, MV4-11; MV-4-11 cells, 72 hr. In kind it is cell-based. The procedure, abridged:
(§1)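 Inhibition is derived from CCK-8 absorbance of compound-treated cells relative to DMSO-treated cells, after subtracting a cell-free medium/DMSO background. Test concentrations span 20 μM down to 1.02 nM in 3-fold steps, and lines are cultured as ATCC recommends.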
For orientation: Formazan colour is commonly taken as a measure of viable cells.

The test system of assay [2] is U-87 MG human glioblastoma. Nature of the assay: U87 MG CCK-8 proliferation assay. The assay is classed as cell-based. To be noted: Homo sapiens, U-87 MG, 72 h, U-87 MG cells, read-out: U87MG CCK-8. The gist of the method: as §1

For `CCOc1cc(N2CCC(C(=O)N3CCC(CN4CCN(Cc5ccc(-n6c(C(=O)NC7CC7)nnc6-c6cc(CC)c(O)cc6O)cc5)CC4)CC3)CC2)ccc1Nc1ncc2c(n1)N(S(C)(=O)=O)c1ccccc1C(=O)N2C` [Compound 075, N-cyclopropyl-4-(4-((4-((1-(1-(3-ethoxy-4-((5-methyl-11-(methylsulfonyl)-6-oxo-6,11-dihydro-5H-benzo[e]pyrimido[5,4-b][1,4]diazepin-2-yl)amino)phenyl)piperidine-4-carbonyl)piperidin-4-yl)methyl)piperazin-1-yl)methyl)phenyl)-5-(5-ethyl-2,4-dihydroxyphenyl)-4H-1,2,4-triazole-3-carboxamide], the IC50 at HSP90α protein is < 100 nM. Also, the ERBB2 degradation entry in the assay on ERBB2 was “B (DC50 = 100-1000 nM)”. Moreover, the EC50 in assay [1] and in assay [2] was < 100 nM each time.

For the compound `CCOc1cc(N2CCC(C(=O)NCc3ccc(-n4c(O)nnc4-c4cc(CC)c(O)cc4O)cc3)CC2)ccc1Nc1ncc2c(n1)N(C)c1ccccc1C(=O)N2C` [Compound 028, 1-(4-((5,11-dimethyl-6-oxo-6,11-dihydro-5H-benzo[e]pyrimido[5,4-b][1,4]diazepin-2-yl)amino)-3-ethoxyphenyl)-N-(4-(3-(5-ethyl-2,4-dihydroxyphenyl)-5-hydroxy-4H-1,2,4-triazol-4-yl)benzyl)piperidine-4-carboxamide], the IC50 on HSP90α protein fell in the range of 100 to 1000 nM. Moreover, the ERBB2 degradation entry in the assay on ERBB2 is reported as “B (DC50 = 100-1000 nM)”. Moreover, the EC50 was 100 to 1000 nM in assay [1] and > 1000 nM in assay [2].

With `CCOc1cc(N2CCC(C(=O)NCc3ccc(-n4c(O)nnc4-c4cc(CC)c(O)cc4O)cc3C(F)(F)F)CC2)ccc1Nc1ncc2c(n1)N(C)c1ccccc1C(=O)N2C` [Compound 031, 1-(4-((5,11-dimethyl-6-oxo-6,11-dihydro-5H-benzo[e]pyrimido[5,4-b][1,4]diazepin-2-yl)amino)-3-ethoxyphenyl)-N-(4-(3-(5-ethyl-2,4-dihydroxyphenyl)-5-hydroxy-4H-1,2,4-triazol-4-yl)-2-(trifluoromethyl)benzyl)piperidine-4-carboxamide], the concentration for half-maximal inhibition (IC50) on HSP90α protein was > 1000 nM. In the assay with ERBB2, the ERBB2 degradation result was “C (DC50 > 1000 nM)”. Moreover, the EC50 in assay [1] and in assay [2] was > 1000 nM in each case.

On HSP90α protein, `CCOc1cc(N2CCC(C(=O)N3CCC(Cc4ccc(CN(C)Cc5ccc(-n6c(C(=O)NCC(F)(F)F)nnc6-c6cc(C(C)C)c(O)cc6O)cc5)cn4)CC3)CC2)ccc1Nc1ncc2c(n1)N(C)c1ccccc1C(=O)N2C` [Compound 057, 5-(2,4-dihydroxy-5-isopropylphenyl)-4-(4-((((6-((1-(1-(4-((5,11-dimethyl-6-oxo-6,11-dihydro-5H-benzo[e]pyrimido[5,4-b][1,4]diazepin-2-yl)amino)-3-ethoxyphenyl)piperidine-4-carbonyl)piperidin-4-yl)methyl)pyridin-3-yl)methyl)(methyl)amino)methyl)phenyl)-N-(2,2,2-trifluoroethyl)-4H-1,2,4-triazole-3-carboxamide] registered an IC50 of 100 to 1000 nM. Moreover, the ERBB2 degradation entry in the assay on ERBB2 was “B (DC50 = 100-1000 nM)”. The figures for the EC50 in assay [1] and in assay [2] were < 100 nM and 100 to 1000 nM, respectively.

The compound `CCOc1cc(N2CCC(C(=O)NCCc3ccc(CN4CCC(Cc5ccc(-n6c(C(=O)NCC(F)(F)F)nnc6-c6cc(C(C)C)c(O)cc6O)cc5)CC4)cc3)CC2)ccc1Nc1ncc2c(n1)N(C)c1ccccc1C(=O)N2C` [Compound 035, N-(4-((4-(4-(3-(2,4-dihydroxy-5-isopropylphenyl)-5-((2,2,2-trifluoroethyl)carbamoyl)-4H-1,2,4-triazol-4-yl)benzyl)piperidin-1-yl)methyl)phenethyl)-1-(4-((5,11-dimethyl-6-oxo-6,11-dihydro-5H-benzo[e]pyrimido[5,4-b][1,4]diazepin-2-yl)amino)-3-ethoxyphenyl)piperidine-4-carboxamide] had an IC50 on HSP90α protein of 100 to 1000 nM. Also, the ERBB2 degradation entry in the assay on ERBB2 is recorded as “B (DC50 = 100-1000 nM)”. The results for the EC50 in assay [1] and in assay [2] were < 100 nM and 100 to 1000 nM, respectively.

For `CCOc1cc(N2CCC(C(=O)N3CCC(CN4CCN(Cc5ccc(-n6c(C(=O)NC(C)C)nnc6-c6cc(CC)c(O)cc6O)cc5)CC4)CC3)CC2)ccc1Nc1ncc2c(n1)N(S(C)(=O)=O)c1ccccc1C(=O)N2C` [Compound 098, 4-(4-((4-((1-(1-(3-ethoxy-4-((5-methyl-11-(methylsulfonyl)-6-oxo-6,11-dihydro-5H-benzo[e]pyrimido[5,4-b][1,4]diazepin-2-yl)amino)phenyl)piperidine-4-carbonyl)piperidin-4-yl)methyl)piperazin-1-yl)methyl)phenyl)-5-(5-ethyl-2,4-dihydroxyphenyl)-N-isopropyl-4H-1,2,4-triazole-3-carboxamide], the IC50 on HSP90α protein was < 100 nM. For the same compound, the ERBB2 degradation entry with ERBB2 is “B (DC50 = 100-1000 nM)”. The EC50 in assay [1] and in assay [2] was < 100 nM each time.

Take `CCOc1cc(N2CCC(C(=O)N3CCC(CN4CCN(Cc5ccc(-n6c(C(=O)N[C@H](C)C(F)(F)F)nnc6-c6cc(CC)c(O)cc6O)cc5)CC4)CC3)CC2)ccc1Nc1ncc2c(n1)N(S(C)(=O)=O)c1ccccc1C(=O)N2C` [Compound 123, (R)-4-(4-((4-((1-(1-(3-ethoxy-4-((5-methyl-11-(methylsulfonyl)-6-oxo-6,11-dihydro-5H-benzo[e]pyrimido[5,4-b][1,4]diazepin-2-yl)amino)phenyl)piperidine-4-carbonyl)piperidin-4-yl)methyl)piperazin-1-yl)methyl)phenyl)-5-(5-ethyl-2,4-dihydroxyphenyl)-N-(1,1,1-trifluoropropan-2-yl)-4H-1,2,4-triazole-3-carboxamide]: the half-inhibitory concentration (IC50) at HSP90α protein was in the range of 100 to 1000 nM. Moreover, in the assay with ERBB2, the ERBB2 degradation result was “B (DC50 = 100-1000 nM)”. For the same compound, the EC50 in assay [1] was < 100 nM; in assay [2], 100 to 1000 nM.

Regarding `CCOc1cc(N2CCC(C(=O)NCc3ccc(-n4c(O)nnc4-c4cc(C)c(O)cc4O)cc3)CC2)ccc1Nc1ncc2c(n1)N(C)c1ccccc1C(=O)N2C` [Compound 027, N-(4-(3-(2,4-dihydroxy-5-methylphenyl)-5-hydroxy-4H-1,2,4-triazol-4-yl)benzyl)-1-(4-((5,11-dimethyl-6-oxo-6,11-dihydro-5H-benzo[e]pyrimido[5,4-b][1,4]diazepin-2-yl)amino)-3-ethoxyphenyl)piperidine-4-carboxamide], the ERBB2 degradation result in the assay with ERBB2 is “C (DC50 > 1000 nM)”. The EC50 in assay [1] is 100 to 1000 nM; in assay [2] it was > 1000 nM.

Regarding `CCOc1cc(N2CCC(C(=O)NCc3ccc(-n4c(O)nnc4-c4cc(C(C)C)c(O)cc4O)cc3C(F)(F)F)CC2)ccc1Nc1ncc2c(n1)N(C)c1ccccc1C(=O)N2C` [Compound 030, N-(4-(3-(2,4-dihydroxy-5-isopropylphenyl)-5-hydroxy-4H-1,2,4-triazol-4-yl)-2-(trifluoromethyl)benzyl)-1-(4-((5,11-dimethyl-6-oxo-6,11-dihydro-5H-benzo[e]pyrimido[5,4-b][1,4]diazepin-2-yl)amino)-3-ethoxyphenyl)piperidine-4-carboxamide], the ERBB2 degradation entry in the assay with ERBB2 is reported as “B (DC50 = 100-1000 nM)”. Also, the values for the EC50 in assay [1] and in assay [2] were 100 to 1000 nM and > 1000 nM, respectively.
